According to US20220332733A1, “MATERIAL FOR WAVELENGTH CONVERSION, WAVELENGTH CONVERSION MEMBER, LIGHT EMITTING DEVICE, AND COMPOUND USED FOR SAME” (FUJIFILM Corporation, priority 2021, published 2022):

Columns and labels:
Type in all cases: physicochemical
[1] = Relative fluorescence intensity of fluorescent latex dispersion; details: for fluorescence intensity of fluorescent latex as the compound amount is increased (in words): compared with comparative compound (1), summary of Table 1; for Relative Fluorescence Intensity: relative to 6 μmol/g of the same compound, at emission maximum wavelength, dispersion diluted 200 times
Description: As latex particles, particles having an average particle diameter of 150 nm, which were prepared by polymerizing a mixture of styrene and an acrylic acid in a mass ratio of 9:1 in a state of being dispersed in water, were used. The average particle diameter was measured using a dynamic light scattering method using Zetasizer Nano ZS (trade name, manufactured by Malvern Panalytical Ltd.) based on the above-described measurement conditions. 5 mL of THF was added dropwise to 25 mL of the latex dispersion with a solid content of 2% (solid content mass: 500 mg) prepared as above, and the mixture was stirred for 10 minutes. 2.5 mL of a THF solution of a test compound (any one of the compound (1-1), the compound (1-2), the compound (2-1), or the comparative compound (1)) was added dropwise thereto for 15 minutes. In Table 1, μmol/g in the column of compound amount indicates the number of moles of the compound used with respect to 1 g of the solid content of the latex. Completion of the dropwise addition of the test compound was followed by stirring for 30 minutes and concentration under reduced pressure to remove THF. After that, the particles were precipitated by centrifugation, followed by addition of ultrapure water and redispersion to manufacture fluorescent latex dispersions Nos. 101 to 104, 201, 202, 301 to 303, and c11 to c14 with a concentration of solid contents of 2 mass %.
The relative fluorescence intensity of the fluorescent latex dispersion with a concentration of solid contents of 2 mass % manufactured as above at an emission maximum wavelength was evaluated. The evaluation was performed using a latex dispersion diluted 200 times with ultrapure water with the use of a fluorescence spectrophotometer RF-5300PC (trade name) manufactured by Shimadzu Corporation for measurement of the emission maximum wavelength and the fluorescence intensity at the emission maximum wavelength.
In the respective test compounds, based on the fluorescence intensity at the emission maximum wavelength with a compound amount of 6 μmol/g, fluorescence intensities at the emission maximum wavelength with other compound amounts were evaluated as the relative fluorescence intensity.

[2] = Absorption characteristics of compound (molar absorption coefficient, half-width) in chloroform; details: for Half-Width: at maximal absorption wavelength
Description: Using a spectrophotometer UV-3600 (trade name) manufactured by Shimadzu Corporation, a molar absorption coefficient ϵ (1/mol·cm) and a half-width at a maximal absorption wavelength were measured and evaluated based on the following evaluation ranks. The half-width means a width (distance) between two wavelengths showing half the intensity of the maximal value at the maximum absorption wavelength. In the table, the evaluation of the molar absorption coefficient ϵ is described in the column of ϵ. As a measurement solvent, chloroform was used.
In this test, a molar absorption coefficient at evaluation rank “B” or higher (S to B) is regarded as acceptable, and due to the fact that the half-width is preferably narrow from the viewpoint of an improvement of color reproducibility, a half-width at evaluation rank “A” or higher (S or A) is regarded as acceptable.

[3] = Solubility of compound in solvents or raw material monomers, visual; details: summary of Table 3
Description: The solubility in the following solvents or media A to G as raw material monomers of a resin was evaluated. The evaluation method is as follows: 0.1 ml of a solvent was added to […] of each compound to dissolve the compound, and the solubility was visually determined based on the following evaluation ranks. In this test, evaluation rank “B” or higher is an acceptable level.

[4] = compound amount 100 μmol/g latex solids
[5] = compound amount 48 μmol/g latex solids
[6] = compound amount 24 μmol/g latex solids

| Compound | fluorescence intensity of fluorescent latex as the compound amount is increased (in words) [1] | Relative Fluorescence Intensity [1, 4] | ε (molar absorption coefficient at maximal absorption wavelength) [2] | Half-Width [2] | Relative Fluorescence Intensity [1, 5] | solubility in the solvent or raw material monomer (in words) [3] | Relative Fluorescence Intensity [1, 6] |
| --- | --- | --- | --- | --- | --- | --- | --- |
| CC1CC(C(C)(C)C)C(OC(=O)C2=C(c3ccccc3)C3=Cc4c(-c5ccccc5)c(C(=O)OC5C(C(C)(C)C)CC(C)CC5C(C)(C)C)c(N)n4[B-](F)(F)[N+]3=C2N)C(C(C)(C)C)C1 (centres unmarked) [Compound (1-2)] | higher fluorescence intensity | 10 times as large as No. 201 | S (equal to or greater than 130,000) | A (equal to or greater than 31 nm and equal to or less than 35 nm) | – | – | – |
| CC1=C(C(=O)OC2C(C(C)(C)C)CC(C)CC2C(C)(C)C)C(N)=[N+]2C1=C(C)c1c(C)c(C(=O)OC3C(C(C)(C)C)CC(C)CC3C(C)(C)C)c(N)n1[B-]2(F)C(F)(F)F (centres unmarked) [Compound (2-1)] | higher fluorescence intensity | 12 times as large as No. 301 | S (equal to or greater than 130,000) | S (equal to or less than 30 nm) | 7 times as large as No. 301 | excellent solubility | – |
| CCOC(=O)C1=C(C)C2=C(c3cc(-c4ccc(C(C)(C)C)cc4)cc(-c4ccc(C(C)(C)C)cc4)c3)c3c(C)c(C(=O)OCC)c(C)n3[B-](F)(F)[N+]2=C1C [Comparative Compound (1), reference compound] | – | 6 times as large as No. c11 | D (less than 100,000) | S (equal to or less than 30 nm) | 5 times as large as No. c11 | poor solubility | 3 times as large as No. c11 |
| CC1=C(C(=O)OC2C(C(C)(C)C)CC(C)CC2C(C)(C)C)C(N)=[N+]2C1=C(C)c1c(C)c(C(=O)OC3C(C(C)(C)C)CC(C)CC3C(C)(C)C)c(N)n1[B-]2(F)F (centres unmarked) [Compound (1-1)] | higher fluorescence intensity | 12 times as large as No. 101 | S (equal to or greater than 130,000) | S (equal to or less than 30 nm) | 7 times as large as No. 101 | excellent solubility | 4 times as large as No. 101 |
